Where only a bound is given, the exact number is not on record here.

In one series the test system is HEL. The experiment in a line: Cytotoxicity against human HEL cells assessed as reduction in cell viability incubated for 24 hrs by MTT assay. The format is functional. In general terms: Formazan colour is commonly taken as a measure of viable cells.
The nature of series [1]: Cytotoxicity against African green monkey Vero E6 cells assessed as reduction in cell viability by Cell titer-Glo luminescent assay. The format is toxicity, cell-based. To be noted: chlorocebus sabaeus. Background: ATP-based viability assays read luminescence as a measure of living cells.
Series [2] has as its system Human alphaherpesvirus 3. As to the kind of experiment: Antiviral activity against Varicella zoster virus infected in human HEL cells assessed as inhibition of plaque formation measured for 3 days. Type of series: functional, organism-based. To be noted: Human alphaherpesvirus 3, HEL, 72 h.
The subject of the next series is Hepatitis C virus. The experiment in a line: Antiviral activity against Hepatitis C virus infected in human Huh-7 cells assessed as reduction in viral infection incubated for 72 hrs by qRT-PCR analysis. Type of series: functional, organism-based, Hepacivirus hominis. Conditions: Huh-7, 72 h. For orientation: Real-time PCR tracks product formation cycle by cycle.

Series [3] deals with Human alphaherpesvirus 3. The experiment in a line: Antiviral activity against Varicella zoster virus infected in human HEL cells assessed as reduction in plaque formation. The format is functional, organism-based. To be noted: Human alphaherpesvirus 3, HEL.
The nature of series [4]: Cytotoxicity against African green monkey Vero E6 cells assessed as reduction in cell viability by neutral red uptake assay. The format is toxicity, cell-based, Vero C1008. To be noted: chlorocebus sabaeus.
The test system of a further series is SARS-CoV. The experiment in a line: Antiviral activity against SARS-CoV Urbani infected in Vero E6 cells at 0.01 to 0.025 MOI assessed as inhibition of virus induced cytopathic effect. Type of series: functional, organism-based. Conditions: Severe acute respiratory syndrome-related coronavirus, Vero C1008.
A short description of series [5]: Cytotoxicity against human HEL cells. The format is toxicity, cell-based.
In series [6] the test system is Human alphaherpesvirus 3. The experiment in a line: Antiviral activity against Varicella zoster virus infected in human HEL cells assessed as reduction in plaque formation incubated for 72 hrs. The format is functional, organism-based. Conditions: Human alphaherpesvirus 3, HEL.
A further series has as its system HMEC-1. As to the kind of experiment: Cytotoxicity against human HMEC-1 cells assessed as reduction in cell growth incubated for 24 hrs. Type of series: functional.
Series [7] concerns the target Histone-lysine N-methyltransferase SETD2 (Homo sapiens, UniProt Q9BYW2). As to the kind of experiment: Inhibition of human recombinant […] N-terminal His-tagged SETD2 (1347to1711 residues) extracted from Escherichia coli BL21 (DE3) using biotin-tagged Histone H3 and 3H-SAM as substrate incubated for 1 hr by TopCount scintillation proximity assay.
The subject of another series is SARS-CoV-2. The experiment in a line: Antiviral activity against SARS CoV-2 Omicron B1.1.529 infected in Vero E6 cells at 0.02 MOI assessed as reduction in viral RNA growth incubated for 24 hrs by qRT-PCR analysis. The format is functional, organism-based. Conditions: Severe acute respiratory syndrome coronavirus 2, Omicron B1.1.529, Vero C1008, 24 h.
The subject of a further series is Human betaherpesvirus 5. As to the kind of experiment: Antiviral activity against HCMV. Type of series: functional, organism-based.

Histone-lysine N-methyltransferase SETD2, sequence (Q9BYW2 whole entry, the tested form may be a part): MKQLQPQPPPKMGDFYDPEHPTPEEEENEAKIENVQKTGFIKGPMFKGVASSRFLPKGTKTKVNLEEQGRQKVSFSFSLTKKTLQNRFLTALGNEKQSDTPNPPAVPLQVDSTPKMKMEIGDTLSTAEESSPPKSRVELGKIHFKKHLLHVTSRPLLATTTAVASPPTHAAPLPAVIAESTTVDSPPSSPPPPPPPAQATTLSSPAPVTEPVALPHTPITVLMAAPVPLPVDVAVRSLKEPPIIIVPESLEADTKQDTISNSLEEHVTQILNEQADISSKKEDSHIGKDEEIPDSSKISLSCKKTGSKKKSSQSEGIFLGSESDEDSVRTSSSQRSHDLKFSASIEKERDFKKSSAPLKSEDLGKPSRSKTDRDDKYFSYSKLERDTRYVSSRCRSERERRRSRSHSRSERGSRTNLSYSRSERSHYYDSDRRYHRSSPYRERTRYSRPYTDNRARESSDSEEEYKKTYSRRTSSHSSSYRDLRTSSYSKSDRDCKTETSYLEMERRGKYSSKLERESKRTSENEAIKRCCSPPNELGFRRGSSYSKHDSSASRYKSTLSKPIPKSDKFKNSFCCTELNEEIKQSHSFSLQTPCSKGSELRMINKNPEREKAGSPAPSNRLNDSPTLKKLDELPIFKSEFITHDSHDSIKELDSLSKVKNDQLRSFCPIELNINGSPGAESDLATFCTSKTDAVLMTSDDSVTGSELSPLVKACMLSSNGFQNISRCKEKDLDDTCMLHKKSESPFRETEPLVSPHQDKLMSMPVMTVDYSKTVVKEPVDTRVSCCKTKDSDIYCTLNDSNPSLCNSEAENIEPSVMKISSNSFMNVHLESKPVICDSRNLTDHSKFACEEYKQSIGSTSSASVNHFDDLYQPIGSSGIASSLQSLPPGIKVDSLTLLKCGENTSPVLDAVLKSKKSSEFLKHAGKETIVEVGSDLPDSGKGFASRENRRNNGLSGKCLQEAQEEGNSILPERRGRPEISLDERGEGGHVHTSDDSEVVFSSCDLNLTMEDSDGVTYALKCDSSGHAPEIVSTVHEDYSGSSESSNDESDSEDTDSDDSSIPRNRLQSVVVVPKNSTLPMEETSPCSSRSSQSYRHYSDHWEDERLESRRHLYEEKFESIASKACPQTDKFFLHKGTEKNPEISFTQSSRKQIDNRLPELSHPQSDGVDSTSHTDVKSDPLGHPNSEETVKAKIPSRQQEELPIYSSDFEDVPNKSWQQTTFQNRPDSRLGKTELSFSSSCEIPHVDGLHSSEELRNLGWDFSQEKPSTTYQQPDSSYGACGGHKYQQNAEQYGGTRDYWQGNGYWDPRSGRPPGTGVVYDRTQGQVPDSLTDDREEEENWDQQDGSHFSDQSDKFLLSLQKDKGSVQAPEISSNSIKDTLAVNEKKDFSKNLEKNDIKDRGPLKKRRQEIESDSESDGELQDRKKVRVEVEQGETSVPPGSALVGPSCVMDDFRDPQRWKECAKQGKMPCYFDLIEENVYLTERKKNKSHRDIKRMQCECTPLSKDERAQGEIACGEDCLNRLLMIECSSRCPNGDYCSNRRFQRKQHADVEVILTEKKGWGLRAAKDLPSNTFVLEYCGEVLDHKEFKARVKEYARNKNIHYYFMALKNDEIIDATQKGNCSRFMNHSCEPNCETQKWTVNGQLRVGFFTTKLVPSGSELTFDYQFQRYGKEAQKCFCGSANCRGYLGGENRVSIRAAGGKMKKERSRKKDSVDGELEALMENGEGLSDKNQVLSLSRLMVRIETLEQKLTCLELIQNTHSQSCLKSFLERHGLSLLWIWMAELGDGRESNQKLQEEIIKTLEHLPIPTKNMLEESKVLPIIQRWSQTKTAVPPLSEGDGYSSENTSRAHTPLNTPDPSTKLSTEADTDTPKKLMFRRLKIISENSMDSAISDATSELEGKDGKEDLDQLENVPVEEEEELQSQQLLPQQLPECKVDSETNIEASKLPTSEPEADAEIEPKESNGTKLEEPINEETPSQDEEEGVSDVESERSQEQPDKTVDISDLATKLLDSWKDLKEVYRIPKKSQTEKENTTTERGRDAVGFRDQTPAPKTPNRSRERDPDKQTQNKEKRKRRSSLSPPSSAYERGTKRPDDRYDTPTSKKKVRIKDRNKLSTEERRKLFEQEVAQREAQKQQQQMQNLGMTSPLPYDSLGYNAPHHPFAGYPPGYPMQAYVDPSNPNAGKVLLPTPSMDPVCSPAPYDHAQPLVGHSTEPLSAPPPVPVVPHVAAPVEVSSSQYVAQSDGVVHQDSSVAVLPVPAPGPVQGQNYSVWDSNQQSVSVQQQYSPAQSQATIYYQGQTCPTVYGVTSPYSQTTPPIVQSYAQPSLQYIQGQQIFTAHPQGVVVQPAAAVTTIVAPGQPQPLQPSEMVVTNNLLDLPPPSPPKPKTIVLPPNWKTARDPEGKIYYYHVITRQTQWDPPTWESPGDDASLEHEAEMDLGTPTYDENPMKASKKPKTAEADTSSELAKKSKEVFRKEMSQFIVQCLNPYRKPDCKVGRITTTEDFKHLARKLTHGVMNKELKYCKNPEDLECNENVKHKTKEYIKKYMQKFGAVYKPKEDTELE

For `O=c1nc2c(cn1[C@H]1C[C@H](O)[C@@H](CO)O1)Oc1ccccc1N2`, the CC50 with HEL is above 100 µM.

On to `COc1nc(N)nc2c1ncn2[C@@H]1O[C@H](CO)[C@@H](O)[C@@H]1O` [NELARABINE], for which the CC50 in series [1] was above 100 µM.

`O=c1c2ccccc2n(Cc2cn(CCCOCc3ccccc3)nn2)c(=O)n1Cc1ccccc1`: the EC50 with Human alphaherpesvirus 3 [2] is above 20 µM. Turning to `CC(C)OC(=O)[C@H](C)N[P@](=O)(OC[C@H]1O[C@@H](n2ccc(=O)[nH]c2=O)[C@](C)(F)[C@@H]1O)Oc1ccccc1` [SOFOSBUVIR], in the series with Hepatitis C virus, the EC50 was 0.092 µM. With `O=c1c2ccccc2n(Cc2cn(CCCOCc3ccccc3)nn2)c(=O)n1Cc1ccc(F)cc1`, in the series on Human alphaherpesvirus 3 [2], the EC50 worked out at 12.3 µM. As to `COc1ccc(C(OC[C@H]2O[C@@H](n3cc4c(nc3=O)Nc3ccccc3O4)[C@H](O)[C@@H]2O)(c2ccccc2)c2ccc(OC)cc2)cc1`, the EC50 with Human alphaherpesvirus 3 [3] worked out at 2.7 µM. The cytotoxic concentration (CC50) in the series on HEL was 9.7 µM. Turning to `CC(C)Nc1nc2cc(Cl)c(Cl)cc2n1[C@H]1O[C@@H](CO)[C@H](O)[C@@H]1O` [MARIBAVIR], the CC50 in [1] was above 100 µM. `COc1c(C)c2c(c(O)c1C/C=C(\C)CCC(=O)O)C(=O)OC2` [MYCOPHENOLIC ACID]: the 50% cytotoxic concentration (CC50) in [4] is above 30 µM. The concentration for a half-maximal effect (EC50) with SARS-CoV was above 30 µM. Compound `O=c1nc2oc(CCCCCCCCCCl)cc2cn1[C@H]1C[C@H](O)[C@@H](CO)O1` showed a CC50 in series [5] of 200 µM. Also, in the series on Human alphaherpesvirus 3 [6], the concentration giving a half-maximal response (EC50) was found to be 0.012 µM. For `O=c1nc2oc(CCCCCCCCCI)cc2cn1[C@H]1C[C@H](O)[C@@H](CO)O1` the same measures were above 200 µM and 0.034 µM. Turning to `C#CCn1c(=O)n(C(=O)c2ccccc2F)c(=O)c2ccccc21`, in the series on HMEC-1, the CC50 was above 100 µM. The EC50 in the series on Human alphaherpesvirus 3 [2] was 2.8 µM.

On to `Nc1ncnc2c1ncn2[C@@H]1O[C@H](C[C@H](CC[C@H](N)C(=O)O)NCc2ccccc2)[C@@H](O)[C@H]1O`, for which the IC50 in [7] is 0.48 µM. Consider `C#CCn1c(=O)n(C(=O)c2ccccc2)c(=O)c2ccccc21`, for which, in the series with HMEC-1, the CC50 amounted to 11.2 µM. In the series on Human alphaherpesvirus 3 [2], the EC50 came to 5.4 µM.

`Nc1ncnc2c1ncn2[C@@H]1O[C@H](CO)[C@@H](O)[C@@H]1O` [VIDARABINE]: the CC50 in [1] is above 100 µM. In the series with SARS-CoV-2, the 50% effective concentration (EC50) was determined as 0.251 µM. With `O=c1[nH]cnc2c([C@@H]3N[C@H](CO)[C@@H](O)[C@H]3O)c[nH]c12` [FORODESINE], the CC50 in [1] was above 100 µM. Consider `Nc1ncnc2c1ncn2[C@@H]1O[C@H](C[C@@H](N)CC[C@H](N)C(=O)O)[C@@H](O)[C@H]1O` [SINEFUNGIN], for which the IC50 in series [7] was found to be 28.4 µM. As to `C#Cc1c(C(N)=O)ncn1[C@@H]1O[C@H](CO)[C@@H](O)[C@H]1O`, the CC50 in [4] is above 40 µM. In addition, in the series with SARS-CoV, the EC50 was above 40 µM. On to `CCC(CC)COC(=O)[C@H](C)N[P@](=O)(OC[C@H]1O[C@@](C#N)(c2ccc3c(N)ncnn23)[C@H](O)[C@@H]1O)Oc1ccccc1` [REMDESIVIR], for which the CC50 in series [1] was above 100 µM. The concentration for a half-maximal effect (EC50) in the series with SARS-CoV-2 came to 0.981 µM. As for `COc1ccc(C(OC[C@H]2O[C@@H](n3cc4c(nc3=O)Nc3ccccc3O4)C[C@@H]2O)(c2ccccc2)c2ccc(OC)cc2)cc1`, the 50% effective concentration (EC50) with Human alphaherpesvirus 3 [3] was found to be 1.5 µM. Besides, the CC50 in the series with HEL was determined as 12.2 µM.

With `CC(C)=CCNc1ncnc2c1ncn2[C@@H]1O[C@H](CO)[C@@H](O)[C@H]1O` [RIBOPRINE], in series [1], the CC50 is above 100 µM. In the series on Human betaherpesvirus 5, `O[C@@H]1[C@H](O)[C@H](O)CO[C@H]1Cn1c(Br)nc2cc(Cl)c(Cl)cc21` returned an EC50 of 1.4 µM.

One may read the CC50 as the concentration that lowers cell viability or growth by half. What is called EC50 is the concentration needed to bring the measured effect to its halfway point. In general, IC50 refers to the midpoint of a concentration-inhibition curve.

The values are drawn from ChEMBL document CHEMBL6114962, “Nucleoside antiviral agents with atypical structures and new targets” (Bioorg Med Chem Lett, 2025).
